Experimental findings from patent US20240002388A1, “PYRIMIDINONE COMPOUNDS AND USES THEREOF” (HUTCHISON MEDIPHARMA LIMITED, priority 2020, published 2024) are described below.

The test system of test [1] is L929 cell line (mouse fibroblastoma cell line). Description: L929 cell viability assay (mTNF-α + Z-VAD-FMK induced necroptosis). The test is classed as cell-based. The settings on record: Mus musculus, L929, 20 h, L929 cells, mTNF-α 0.1 μg/mL + Z-VAD-FMK 5 μM, CellTiter-Glo. As for the experimental part:
L929 cell line (mouse fibroblastoma cell line): purchased from ATCC (American Type Culture Collection) Cell Bank, cultured in 5% CO2, 37° C. incubator, and MEM medium which contains L-Glutamine, with 10% FBS was used. • MEM medium: GIBCO, Cat #11095080; • Fetal bovine serum (FBS): GIBCO, Cat #10099-141C; • Dimethyl sulfoxide (DMSO): Sigma, Cat #D2650; • 0.25% Trypsin-EDTA: GIBCO, Cat #25200072; • Recombinant Mouse TNF-alpha Protein (mTNF-α): R&D system, Cat #410-MT-050; • Pan-Caspase inhibitor (Z-VAD-FMK): Selleckchem, Cat #S7023; • CellTiter-Glo 2.0 Cell Viability Assay kit: Promega, Cat #G9242; • Microwell plate reader: Envision, Perkin Elmer; • 96-well plate: Corning, Cat #3917.
The L929 cells at the logarithmic phase were taken out, and the supernatant was discarded. After trypsinization and cell shedding, 10% FBS-containing medium was added for neutralization, and the supernatant was discarded after centrifugation. The cells were re-suspended using 10% FBS-containing medium, adjusted to 7×10^4 cells/ml, added to 96-well microplate at 70 μL/well, i.e., 4.9×10^3 cells/well. Then the plate was incubated in a 5% CO2, 37° C. cell incubator overnight.
After incubating overnight, the 96-well plate was taken out, the medium was discarded, and the plate was washed with 1% FBS-containing MEM medium. Then 1% FBS-containing MEM medium was added at 70 μL/well, and the plate was cultured in a 5% CO2, 37° C. cell incubator. After incubating for 1 hour, the test compound was diluted to the corresponding concentrations using DMSO with 3-fold serial dilution, then the corresponding concentration of DMSO diluted solution was diluted into 1% FBS-containing MEM medium, and 10 μL/well of the diluted test compound with different concentrations (final concentrations of test compound were 10, 3.33, 1.11, 0.37, 0.12, 0.04, 0.014 and 0.005 μM, while final concentration of DMSO was 0.3%) or 10 μL/well control solution (3% DMSO) were added to the cell culture system respectively, with the total volume being 80 μL/well. Then 10 μL of Z-VAD-FMK solution diluted with 1% FBS-containing MEM medium (final concentration of 5 μM) or 10 μL of control solution (2.5% DMSO) was added to each well, with the total volume being 90 μL/well. The plate was incubated in a 5% CO2, 37° C. cell culture incubator for 1 hour.
After incubating for 1 hour, 10 μL of recombinant mouse TNF-α protein solution diluted with 1% FBS-containing MEM medium (final concentration of 0.1 μg/mL) or 10 μL control solution (1% FBS-containing MEM medium) was added to each well. The plate was incubated in a 5% CO2, 37° C. cell culture incubator for 20 hours.
(§1) The cell culture plate was taken out from the incubator, and left to stand at room temperature for 30 minutes. Meanwhile, CellTiter-Glo viability assay kit was put from freezer to room temperature, and 50 μL of CellTiter-Glo reagent was added to all wells, the plate was shaken for 1 minutes, protected from light at room temperature for 10 minutes then read the plate on Envision to get the luminescence signal.
(§2) The 96-well plate in the dark was taken out, and the chemiluminescence was determined using the Envision microwell plate reader as the signal value of each well.
The mean signal value of the wells of the mixed solution of recombinant mouse TNF-alpha protein (final concentration of 0.1 μg/mL) and Pan-Caspase inhibitor (final concentration of 5 μM) was used as the lower value, and the mean signal value of the wells without stimulation was used as the upper value. According to the signal value of each well, the inhibition rate of each concentration of every compound was calculated, and the IC50 value of compound was obtained by Model 205 in XL-Fit 5.3 software (ID Business Solutions Limited).
(§3) Inhibition rate %=[(Luminescence readout of treated compound−Luminescence readout of positive control)/(Luminescence readout of negative control−Luminescence readout of positive control)]×100%, wherein
For orientation: ATP-based viability assays read luminescence as a measure of living cells.

Test [2] concerns U937 cell line (human histiocytic lymphoma cell line). Description: U937 cell viability assay (TNF-α + Z-VAD-FMK induced necroptosis). The test is classed as cell-based. The settings on record: Homo sapiens, U-937; U937 cells, hTNF-α 0.1 μg/mL + Z-VAD-FMK 50 μM, 20 hours, CellTiter-Glo. The method, then:
U937 cell line (human histiocytic lymphoma cell line): purchased from ATCC (American Type Culture Collection) Cell Bank, cultured in a 5% CO2, 37° C. incubator, and RPMI 1640 medium which contains L-glutamine, 1.5 g/L sodium bicarbonate, 2.383 g/L HEPES solution, 0.11 g/L sodium pyruvate and 4.5 g/L glucose, plus 10% fetal bovine serum (FBS) was used. • RPMI 1640 medium: GIBCO, Cat #A10491-01; • Fetal bovine serum (FBS): GIBCO, Cat #10099-141C; • Dimethyl sulfoxide (DMSO): Sigma, Cat #D2650; • Recombinant Human TNF-alpha Protein (hTNF-α): R&D system, Cat #210-TA-100; • Pan-Caspase inhibitor (Z-VAD-FMK): Selleckchem, Cat #S7023; • CellTiter-Glo 2.0 Cell Viability Assay kit: Promega, Cat #G9242; • Microwell plate reader: Envision, Perkin Elmer; • 96-well plate: Corning, Cat #3917.
The U937 cells at the logarithmic phase were taken out, centrifuged to remove the medium, washed with PRMI 1640 medium containing 1% FBS, and diluted with 1% FBS-containing RPMI 1640 medium to 2.5×10^5 cells/ml, inoculated at 70 μL/well into a 96-well plate, i.e., 1.75×10^4 cells/well. The plate was cultured in a 5% CO2, 37° C. cell incubator. After incubating for 1 hour, the test compound was diluted to the corresponding concentrations using DMSO with 3-fold serial dilution, then the corresponding concentration of DMSO diluted solution was diluted into 1% FBS-containing RPMI 1640 medium, and 10 μL/well of the diluted test compound with different concentrations (final concentration of test compound was 1.0, 0.333, 0.111, 0.037, 0.012, 0.004, 0.0014 and 0.0005 μM, while final concentration of DMSO was 0.3%) or 10 μL/well control solution (3% DMSO) were added to the cell culture system respectively, with the total volume being 80 μL/well; Then 10 μL of Z-VAD-FMK solution diluted with 1% FBS-containing RPMI 1640 medium (final concentration of 50 μM) or 10 μL of control solution (2.5% DMSO) was added to each well, with the total volume being 90 μL/well. The plate was incubated in a 5% CO2, 37° C. cell culture incubator for 1 hour.
After being cultured for 1 hour, 10 μL of human recombinant TNF-α protein diluted with 1% FBS-containing RPMI 1640 medium (final concentration of 0.1 μg/mL) or 10 μL/well control solution (1% FBS-containing RPMI 1640 medium) was added to each well. The plate was incubated in a 5% CO2, 37° C. cell culture incubator for 20 hours.
as §1, §2
The mean signal value of the wells of the mixed solution of recombinant human TNF-alpha protein (final concentration of 0.1 μg/mL) and Pan-Caspase inhibitor (final concentration of 50 μM) was used as the lower value, and the mean signal value of the wells without stimulation was used as the upper value. According to the signal value of each well, the inhibition rate of each concentration of every compound was calculated, and the IC50 value of compound was obtained by Model 205 in XL-Fit 5.3 software (ID Business Solutions Limited).
as §3

As to `CC(C)n1cncc(-c2ccc(C3(NC(=O)c4nnc(Cc5ccccc5)[nH]4)CC3)cc2)c1=O` [Compound 14], the IC50 (as a rule, the midpoint of a concentration-inhibition curve) came out at 181 nM in test [1] and 3 nM in test [2].
